Tests used:
Assay in all cases: biochemical
Set-up in all cases: KINOMEscan active-site competition binding panel (468 kinase assays), per cent of control at 1000 nM
Conditions in all cases: KINOMEscan per cent of control (binding competition); read-out: Percent Control
ALK(L1196M) = ALK(L1196M) (Homo sapiens, UniProt Q9UM73, L1196M)
From the text: (§1) Figure S7 / Percent Control

FLT3-autoinhibited = FLT3-autoinhibited (Homo sapiens, UniProt P36888)
From the text: as §1

ABL2 = ABL2 (Homo sapiens, UniProt P42684)
From the text: as §1

p38-beta = target: T1, p38-beta (Homo sapiens, UniProt Q15759)
T1 construct: gene MAPK11
From the text: as §1

[1] = target: T2, ABL1(F317I)-phosphorylated (Homo sapiens, UniProt P00519, F317I)
T2 construct: phosphorylated
From the text: as §1

LOK = target: T3, LOK (Homo sapiens, UniProt O94804)
T3 construct: gene STK10
From the text: as §1

BLK = BLK (Homo sapiens, UniProt P51451)
From the text: as §1

NEK7 = NEK7 (Homo sapiens, UniProt Q8TDX7)
From the text: as §1

[2] = target: T4, ABL1(Q252H)-phosphorylated (Homo sapiens, UniProt P00519, Q252H)
T4 construct: phosphorylated
From the text: as §1

KIT(A829P) = KIT(A829P) (Homo sapiens, UniProt P10721, A829P)
From the text: as §1

PIK4CB = target: T5, PIK4CB (Homo sapiens, UniProt Q9UBF8)
T5 construct: gene PI4KB
From the text: as §1

FLT3(K663Q) = FLT3(K663Q) (Homo sapiens, UniProt P36888, K663Q)
From the text: as §1

LRRK2(G2019S) = LRRK2(G2019S) (Homo sapiens, UniProt Q5S007, G2019S)
From the text: as §1

DCAMKL2 = target: T6, DCAMKL2 (Homo sapiens, UniProt Q8N568)
T6 construct: gene DCLK2
From the text: as §1

YANK2 = target: T7, YANK2 (Homo sapiens, UniProt Q9NY57)
T7 construct: gene STK32B
From the text: as §1

MLK3 = target: T8, MLK3 (Homo sapiens, UniProt Q16584)
T8 construct: gene MAP3K11
From the text: as §1

MTOR = MTOR (Homo sapiens, UniProt P42345)
From the text: as §1

[3] = target: T9, JAK1(JH1domain-catalytic) (Homo sapiens, UniProt P23458)
T9 construct: JH1domain-catalytic
From the text: as §1

NIM1 = target: T10, NIM1 (Homo sapiens, UniProt Q8IY84)
T10 construct: gene NIM1K
From the text: as §1

NEK3 = NEK3 (Homo sapiens, UniProt P51956)
From the text: as §1

PIK3CA = PIK3CA (Homo sapiens, UniProt P42336)
From the text: as §1

AURKB = AURKB (Homo sapiens, UniProt Q96GD4)
From the text: as §1

EGFR = EGFR (Homo sapiens, UniProt P00533)
From the text: as §1

GSK3B = GSK3B (Homo sapiens, UniProt P49841)
From the text: as §1

T3 sequence (O94804 whole entry): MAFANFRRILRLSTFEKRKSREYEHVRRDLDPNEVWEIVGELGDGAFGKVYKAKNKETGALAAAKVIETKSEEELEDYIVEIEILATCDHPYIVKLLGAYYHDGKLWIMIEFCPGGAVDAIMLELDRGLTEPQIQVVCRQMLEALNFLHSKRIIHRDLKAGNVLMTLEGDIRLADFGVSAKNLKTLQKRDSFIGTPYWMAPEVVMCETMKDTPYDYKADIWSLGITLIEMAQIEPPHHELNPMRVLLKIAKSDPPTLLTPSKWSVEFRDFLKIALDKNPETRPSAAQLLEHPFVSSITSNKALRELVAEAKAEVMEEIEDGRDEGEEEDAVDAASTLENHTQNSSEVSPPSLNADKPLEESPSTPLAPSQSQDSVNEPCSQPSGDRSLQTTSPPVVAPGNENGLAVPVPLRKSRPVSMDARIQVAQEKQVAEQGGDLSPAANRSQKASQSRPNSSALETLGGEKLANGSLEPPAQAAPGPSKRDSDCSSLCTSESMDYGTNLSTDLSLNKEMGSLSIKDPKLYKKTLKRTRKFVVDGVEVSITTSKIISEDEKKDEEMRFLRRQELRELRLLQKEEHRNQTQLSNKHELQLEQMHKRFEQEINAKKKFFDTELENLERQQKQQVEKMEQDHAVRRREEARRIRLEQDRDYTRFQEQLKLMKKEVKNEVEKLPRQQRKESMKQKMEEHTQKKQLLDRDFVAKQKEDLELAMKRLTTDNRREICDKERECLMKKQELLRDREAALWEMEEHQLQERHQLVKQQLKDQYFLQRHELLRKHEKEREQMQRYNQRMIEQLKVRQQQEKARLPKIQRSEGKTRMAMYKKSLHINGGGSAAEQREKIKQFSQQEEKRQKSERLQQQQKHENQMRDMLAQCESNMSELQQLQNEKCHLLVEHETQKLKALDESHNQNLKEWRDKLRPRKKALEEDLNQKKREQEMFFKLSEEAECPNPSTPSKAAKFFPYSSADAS
NEK3, sequence (P51956 whole entry): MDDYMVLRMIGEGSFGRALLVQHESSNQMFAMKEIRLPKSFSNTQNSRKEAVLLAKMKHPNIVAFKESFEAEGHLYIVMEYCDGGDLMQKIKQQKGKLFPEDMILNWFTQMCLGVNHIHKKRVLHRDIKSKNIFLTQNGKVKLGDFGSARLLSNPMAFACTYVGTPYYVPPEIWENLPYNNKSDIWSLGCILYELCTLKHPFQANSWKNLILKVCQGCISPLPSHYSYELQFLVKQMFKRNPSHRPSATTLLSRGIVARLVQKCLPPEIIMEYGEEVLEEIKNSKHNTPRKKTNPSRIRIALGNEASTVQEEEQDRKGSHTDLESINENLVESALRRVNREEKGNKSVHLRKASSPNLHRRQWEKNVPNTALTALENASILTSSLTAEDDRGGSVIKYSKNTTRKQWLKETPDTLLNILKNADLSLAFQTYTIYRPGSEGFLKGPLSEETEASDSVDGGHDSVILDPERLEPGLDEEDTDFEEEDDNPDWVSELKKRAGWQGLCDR
T7 sequence (Q9NY57 whole entry): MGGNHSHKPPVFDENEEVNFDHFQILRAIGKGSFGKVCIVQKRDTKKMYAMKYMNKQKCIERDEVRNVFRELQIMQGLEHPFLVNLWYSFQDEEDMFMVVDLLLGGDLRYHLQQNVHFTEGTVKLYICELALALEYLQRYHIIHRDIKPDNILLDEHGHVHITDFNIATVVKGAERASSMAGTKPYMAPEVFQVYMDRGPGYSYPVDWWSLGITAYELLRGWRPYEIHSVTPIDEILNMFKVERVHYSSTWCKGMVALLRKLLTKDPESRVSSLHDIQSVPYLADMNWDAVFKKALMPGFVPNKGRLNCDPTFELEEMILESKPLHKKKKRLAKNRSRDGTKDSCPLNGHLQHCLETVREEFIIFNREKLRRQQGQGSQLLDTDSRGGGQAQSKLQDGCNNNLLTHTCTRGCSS
T9 sequence (P23458 whole entry): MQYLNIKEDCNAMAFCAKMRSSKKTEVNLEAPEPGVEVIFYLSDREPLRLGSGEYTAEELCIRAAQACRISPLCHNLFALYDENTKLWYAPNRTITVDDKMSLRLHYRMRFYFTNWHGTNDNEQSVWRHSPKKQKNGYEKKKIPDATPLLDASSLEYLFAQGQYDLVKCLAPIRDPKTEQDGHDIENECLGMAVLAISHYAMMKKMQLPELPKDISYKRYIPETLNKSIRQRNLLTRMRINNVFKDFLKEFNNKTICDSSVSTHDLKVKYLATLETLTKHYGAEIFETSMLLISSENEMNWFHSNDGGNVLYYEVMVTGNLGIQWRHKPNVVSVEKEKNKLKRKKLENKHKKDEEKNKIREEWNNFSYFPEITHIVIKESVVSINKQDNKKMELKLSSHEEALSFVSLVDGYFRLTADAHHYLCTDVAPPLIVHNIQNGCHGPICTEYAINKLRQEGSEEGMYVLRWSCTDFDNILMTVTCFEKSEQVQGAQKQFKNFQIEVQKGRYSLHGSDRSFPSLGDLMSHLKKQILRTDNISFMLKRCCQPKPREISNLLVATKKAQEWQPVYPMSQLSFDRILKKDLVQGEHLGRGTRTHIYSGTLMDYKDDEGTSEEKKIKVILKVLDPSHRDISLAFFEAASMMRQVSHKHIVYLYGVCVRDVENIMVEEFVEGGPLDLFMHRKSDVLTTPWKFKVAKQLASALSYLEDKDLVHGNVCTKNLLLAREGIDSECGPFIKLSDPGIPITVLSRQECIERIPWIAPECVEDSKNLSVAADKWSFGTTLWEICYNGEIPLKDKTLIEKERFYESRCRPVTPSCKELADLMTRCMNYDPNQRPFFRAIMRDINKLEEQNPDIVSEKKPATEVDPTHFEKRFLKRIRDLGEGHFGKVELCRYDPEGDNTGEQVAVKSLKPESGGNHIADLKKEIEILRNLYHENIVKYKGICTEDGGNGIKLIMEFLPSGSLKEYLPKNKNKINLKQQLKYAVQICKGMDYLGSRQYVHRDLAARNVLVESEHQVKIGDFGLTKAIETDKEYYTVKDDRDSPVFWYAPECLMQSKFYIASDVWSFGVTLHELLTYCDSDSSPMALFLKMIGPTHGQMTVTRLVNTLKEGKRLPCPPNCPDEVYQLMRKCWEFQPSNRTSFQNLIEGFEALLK
T5 sequence (Q9UBF8 whole entry): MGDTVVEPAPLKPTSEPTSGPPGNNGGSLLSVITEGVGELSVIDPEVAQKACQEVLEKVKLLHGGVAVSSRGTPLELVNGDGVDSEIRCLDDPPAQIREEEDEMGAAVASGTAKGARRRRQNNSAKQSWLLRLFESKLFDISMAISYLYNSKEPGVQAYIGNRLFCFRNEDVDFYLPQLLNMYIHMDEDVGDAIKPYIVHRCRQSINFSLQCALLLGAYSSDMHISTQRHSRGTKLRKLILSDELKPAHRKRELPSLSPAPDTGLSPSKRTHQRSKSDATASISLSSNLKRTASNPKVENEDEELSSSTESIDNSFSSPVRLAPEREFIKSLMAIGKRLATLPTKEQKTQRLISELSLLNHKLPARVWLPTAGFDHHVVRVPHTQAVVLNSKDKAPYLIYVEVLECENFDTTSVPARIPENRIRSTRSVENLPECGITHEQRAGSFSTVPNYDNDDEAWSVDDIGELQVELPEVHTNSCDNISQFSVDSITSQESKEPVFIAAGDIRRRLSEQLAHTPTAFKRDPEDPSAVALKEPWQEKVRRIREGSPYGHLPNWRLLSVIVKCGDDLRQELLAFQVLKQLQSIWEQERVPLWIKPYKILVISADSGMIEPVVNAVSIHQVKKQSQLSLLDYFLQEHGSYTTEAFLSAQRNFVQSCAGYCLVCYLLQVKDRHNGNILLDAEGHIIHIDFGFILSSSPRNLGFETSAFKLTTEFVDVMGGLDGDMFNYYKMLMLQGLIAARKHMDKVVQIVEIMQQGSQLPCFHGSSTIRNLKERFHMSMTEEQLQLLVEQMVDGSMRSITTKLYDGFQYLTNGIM
KIT(A829P), sequence (P10721 whole entry A829P): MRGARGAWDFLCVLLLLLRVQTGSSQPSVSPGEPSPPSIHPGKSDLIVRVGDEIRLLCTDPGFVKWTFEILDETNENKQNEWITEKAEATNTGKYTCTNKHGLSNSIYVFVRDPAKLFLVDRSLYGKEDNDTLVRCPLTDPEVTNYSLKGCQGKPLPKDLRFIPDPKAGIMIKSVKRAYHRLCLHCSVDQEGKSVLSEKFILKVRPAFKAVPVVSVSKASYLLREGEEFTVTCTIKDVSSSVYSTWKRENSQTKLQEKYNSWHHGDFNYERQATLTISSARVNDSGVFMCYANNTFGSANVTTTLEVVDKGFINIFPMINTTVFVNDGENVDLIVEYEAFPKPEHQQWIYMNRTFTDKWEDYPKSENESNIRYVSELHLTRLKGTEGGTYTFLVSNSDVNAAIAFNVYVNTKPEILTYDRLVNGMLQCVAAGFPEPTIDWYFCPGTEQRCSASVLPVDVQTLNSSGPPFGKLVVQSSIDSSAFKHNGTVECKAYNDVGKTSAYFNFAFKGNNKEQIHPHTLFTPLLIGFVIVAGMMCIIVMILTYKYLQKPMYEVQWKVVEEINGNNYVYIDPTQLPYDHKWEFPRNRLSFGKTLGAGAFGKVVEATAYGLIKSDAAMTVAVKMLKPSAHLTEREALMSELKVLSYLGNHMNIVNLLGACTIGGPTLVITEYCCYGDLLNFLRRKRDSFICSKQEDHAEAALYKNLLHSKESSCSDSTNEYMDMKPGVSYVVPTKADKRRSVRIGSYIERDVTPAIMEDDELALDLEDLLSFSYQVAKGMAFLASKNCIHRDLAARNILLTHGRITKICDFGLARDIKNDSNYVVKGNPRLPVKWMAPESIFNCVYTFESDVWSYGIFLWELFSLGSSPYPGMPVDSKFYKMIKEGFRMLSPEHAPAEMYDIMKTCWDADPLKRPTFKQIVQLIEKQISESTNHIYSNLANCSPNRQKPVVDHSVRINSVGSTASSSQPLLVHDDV

Cn1c(=O)[nH]c2ccc(-c3cccc(C(=O)NC4CCn5ccnc5C4)c3)cc21 (stereo not drawn) [Z36-MP5]
remaining binding at 1 µM (ALK(L1196M)): 78%
remaining binding at 1 µM (FLT3-autoinhibited): 51%
remaining binding at 1 µM (ABL2): 98%
remaining binding at 1 µM (p38-beta): 87%
remaining binding at 1 µM [1]: 90%
remaining binding at 1 µM (LOK): 90%
remaining binding at 1 µM (BLK): 100%
remaining binding at 1 µM (NEK7): 89%
remaining binding at 1 µM [2]: 69%
remaining binding at 1 µM (KIT(A829P)): 78%
remaining binding at 1 µM (PIK4CB): 100%
remaining binding at 1 µM (FLT3(K663Q)): 98%
remaining binding at 1 µM (LRRK2(G2019S)): 59%
remaining binding at 1 µM (DCAMKL2): 90%
remaining binding at 1 µM (YANK2): 56%
remaining binding at 1 µM (MLK3): 93%
remaining binding at 1 µM (MTOR): 87%
remaining binding at 1 µM [3]: 96%
remaining binding at 1 µM (NIM1): 72%
remaining binding at 1 µM (NEK3): 50%
remaining binding at 1 µM (PIK3CA): 97%
remaining binding at 1 µM (AURKB): 84%
remaining binding at 1 µM (EGFR): 97%
remaining binding at 1 µM (GSK3B): 81%

Reference: paper PMC10924921, “Mi-2β promotes immune evasion in melanoma by activating EZH2 methylation” (Nature Communications, 2024)
